Experimental data published in patent publication US11142554B2 (MASSACHUSETTS INSTITUTE OF TECHNOLOGY, priority 2015, dated 2021).
Positions of bridges follow the written chain, without caps; N, C: chain ends. Non-standard residues stand in square brackets, D forms with d. Residues, ends and D or L forms follow the SMILES beside them. S5 = C=CCCC[C@](C)(N)C(=O)O; Nle = CCCC[C@H](N)C(=O)O

Tests used:
[1] = tested on: H929 multiple myeloma cells; assay: Cell viability by CellTiter-Glo (CTG) assay; assay type: cell-based; details: 24 hours
Source text: (§1) Data are mean and s.d. for experiments performed in at least duplicate. Vehicle is DMSO.

[2] = tested on: MDA-MB231 cells; assay: Cell viability by CellTiter-Glo (CTG) assay; assay type: cell-based, human; details: 24 hours
Source text: as §1

[3] = target: T1, Mcl-1 (Homo sapiens, UniProt Q07820); assay: receptor | Mcl-1; details: read-out: receptor | Mcl-1
Target sequence in this assay (Q07820 whole entry, looked up): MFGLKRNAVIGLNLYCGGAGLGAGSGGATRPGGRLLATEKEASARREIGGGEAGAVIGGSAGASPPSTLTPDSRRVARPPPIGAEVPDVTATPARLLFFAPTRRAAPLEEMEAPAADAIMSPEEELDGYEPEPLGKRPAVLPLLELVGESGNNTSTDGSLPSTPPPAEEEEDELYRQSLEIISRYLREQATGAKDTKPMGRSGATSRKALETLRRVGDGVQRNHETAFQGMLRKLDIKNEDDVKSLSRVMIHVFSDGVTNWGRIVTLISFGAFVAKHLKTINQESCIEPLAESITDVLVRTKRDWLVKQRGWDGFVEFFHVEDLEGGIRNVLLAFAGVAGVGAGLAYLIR

[4] = target: Bfl-1 (Homo sapiens, UniProt Q16548); assay: receptor | Bfl-1
[5] = target: Bcl-w (Homo sapiens, UniProt Q92843); assay: receptor | Bcl-w
[6] = target: T2, Bcl-xL (Homo sapiens, UniProt Q07817); assay: receptor | Bcl-xL
Target sequence in this assay (Q07817 whole entry, looked up): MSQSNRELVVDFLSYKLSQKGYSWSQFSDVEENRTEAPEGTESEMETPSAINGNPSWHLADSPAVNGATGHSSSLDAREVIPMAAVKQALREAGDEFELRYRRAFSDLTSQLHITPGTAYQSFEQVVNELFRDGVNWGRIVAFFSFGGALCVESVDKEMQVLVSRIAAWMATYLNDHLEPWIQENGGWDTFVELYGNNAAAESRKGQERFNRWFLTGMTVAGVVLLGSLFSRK

[7] = target: T3, Bcl-2 (Homo sapiens, UniProt P10415); assay: receptor | Bcl-2
Target sequence in this assay (P10415 whole entry, looked up): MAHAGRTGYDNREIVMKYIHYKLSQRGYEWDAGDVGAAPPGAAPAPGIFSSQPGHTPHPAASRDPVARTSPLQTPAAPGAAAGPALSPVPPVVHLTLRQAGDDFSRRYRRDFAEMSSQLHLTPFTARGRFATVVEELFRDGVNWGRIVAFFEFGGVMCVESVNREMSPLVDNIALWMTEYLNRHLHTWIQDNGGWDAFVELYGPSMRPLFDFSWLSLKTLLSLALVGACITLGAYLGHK

[8] = target: T2, Bcl-xL; assay: Fluorescence anisotropy direct binding of N-terminal fluorescein peptides
Target sequence in this assay (Q07817 whole entry): as the sequence (Q07817 whole entry, looked up) above

[9] = target: T3, Bcl-2; assay: as above
Target sequence in this assay (P10415 whole entry): as the sequence (P10415 whole entry, looked up) above

[10] = target: T4, Bcl-w (Homo sapiens, UniProt Q92843); assay: as above
T4 sequence (Q92843 1-193): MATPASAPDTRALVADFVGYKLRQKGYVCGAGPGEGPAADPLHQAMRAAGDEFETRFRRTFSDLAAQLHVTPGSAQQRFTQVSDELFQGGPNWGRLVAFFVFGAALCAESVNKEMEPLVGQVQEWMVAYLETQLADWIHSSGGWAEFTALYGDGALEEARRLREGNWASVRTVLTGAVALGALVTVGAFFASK

[11] = target: T5, Bfl-1 (Homo sapiens, UniProt Q16548); assay: as above
T5 sequence (Q16548 1-175): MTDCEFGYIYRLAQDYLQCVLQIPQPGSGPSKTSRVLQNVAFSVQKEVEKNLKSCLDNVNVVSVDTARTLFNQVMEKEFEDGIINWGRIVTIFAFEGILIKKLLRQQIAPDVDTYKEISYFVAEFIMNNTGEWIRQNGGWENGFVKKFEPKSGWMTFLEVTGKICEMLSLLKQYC

[12] = tested on: Bcl-2/Myc 2924 cells
Description: (§2) A whole-cell BH3 profiling assay was used to test the specificity of our Mcl-1-binding peptides in several cell lines with differing dependencies on Bcl-2, Mcl-1, Bcl-xL, or Bfl-1. In this assay, permeabilized cells were treated with increasing doses of BH3 peptides, and mitochondrial outer membrane permeabilization (MOMP) was monitored using the dye JC-1 (see below). Mcl-1/Myc 2640 is an engineered murine leukemia cell line overexpressing murine Mcl-1 and Myc, and Bcl-2/Myc 2924 is a similarly engineered cell line overexpressing human Bcl-2.
(§3) Assay plates were produced by serial dilution of each peptide from 200 μM to 0.2 nM using 10-fold dilutions in DTEB (Derived from Trehalose Experimental Buffer: 135 mM trehalose, 50 mM KCl, 20 μM EDTA, 20 μM EGTA, 0.1% BSA, 5 mM succinate, 10 mM HEPES-KOH pH 7.5) containing 0.005% w/v digitonin, 10 mM 2-mercaptoethanol, 2 μM JC-1, and 20 mg mL-1 oligomycin. Triplicate wells for each peptide were made for each cell line by adding 15 μL of the peptide dilutions to each well of a black, untreated 384-well plate. Control wells containing no peptide or 20 μM FCCP (carbonyl cyanide-4(trifluoromethoxy) phenylhydrazone, a chemical uncoupler of oxidative phosphorylation) were included for zero and complete depolarization, respectively. Multiple plates were produced from the same stock and frozen at −80 ° C. for later use. Frozen plates were brought to RT prior to use, cells were suspended in DTEB at a density of 1.34×10^6 cells/mL, and 15 μL of cell suspension was added to each well of the dilution series to yield wells ranging from 0.1 nM to 100 μM peptide and 20000 cells/well. Fluorescence of JC-1 aggregates was measured at 590 nm with 545 nm excitation on a Tecan Safire2 at 5 min intervals for 3 h. The area under each signal-vs-time curve was calculated and normalized to the untreated and FCCP values to produce the percent depolarization. Curves were plotted as the log [peptide] vs percent depolarization, with sigmoidal dose—response curves fitted using Graphpad PRISM 6.

[13] = tested on: MDA-MB-231 cells
Description: as §2, §3

[14] = tested on: Mcl-1/Myc 2640 cells
Description: as §2, §3

[15] = tested on: Pfeiffer cells
Description: as §2, §3

[16] = tested on: Human multiple myeloma cell lines dependent upon Mcl-1
Description: as §2, §3

[17] = target: T2, Bcl-xL; details: reported in the literature; cited from earlier work
Target sequence in this assay (Q07817 whole entry, species assumed): as the sequence (Q07817 whole entry, looked up) above

[18] = target: T3, Bcl-2; details: reported in the literature; cited from earlier work
Target sequence in this assay (P10415 whole entry, species assumed): as the sequence (P10415 whole entry, looked up) above

[19] = target: T4, Bcl-w; details: reported in the literature; cited from earlier work
[20] = tested on: Bfl-1; details: reported in the literature; cited from earlier work
[21] = target: T1, Mcl-1; assay: Competition of unlabeled peptides with a fluorescently labeled Bim variant; details: unlabeled peptide
Target sequence in this assay (Q07820 whole entry): as the sequence (Q07820 whole entry, looked up) above

[22] = tested on: MEF cells; assay: Lactate dehydrogenase (LDH) release assay, non-specific cell lysis; assay type: cell-based
Source text: FIG. 5|Results of studies assessing non-specific cell-lysis by internally cross-linked peptides. Lactate dehydrogenase release assays (LDH) identified membrane-disruptive peptides 3 (SEQ ID NO:9) and 7 (SEQ ID NO:7); tested in MEF cells. Peptides 7, 10, 3, and 11-20 are SEQ ID NOs: 7, 8, 9, and 10-19 respectively.
Additional studies examined the non-specific cell lysis activity of peptide 3 (SEQ ID NO:9) (M1 SAHBd) and certain sequence variants of peptide 3 (SEQ ID NO:9) (M1 SAHBd).

[23] = target: T1, Mcl-1; assay: IC50 (nM)
Source text: Table printed on a drawing sheet, FIG. 8
Head of the field: IC50 (nM)
The patent's description of the figure: FIG. 8|Results of studies assessing cell permeability of various internally cross-linked peptides. Stapled peptides based on MB2 lead peptide are shown. […] MB2 (SEQ ID NO:23); B1 SAHBa (SEQ ID NO:24); B1 SAHBf (SEQ ID NO:25); B1 DAHBd (SEQ ID NO:26); B2 SAHBd (SEQ ID NO:27); B3 SAHBd (SEQ ID NO:28); B1 SAHBg (SEQ ID NO:29); B1 SAHBh (SEQ ID NO:30).

[24] = target: T1, Mcl-1; assay: Fluorescence anisotropy direct binding of N-terminal fluorescein peptides; details: 23-residue peptide with N-terminal fluorescein
Target sequence in this assay (Q07820 whole entry): as the sequence (Q07820 whole entry, looked up) above

[25] = parent: Bim for Bim_A2eT, Bim_A2eT for its point mutants, A12/B3 for MS1/MS2

Compound: CN(C)CC[C@H](CSc1ccccc1)Nc1ccc(S(=O)(=O)NC(=O)c2ccc(N3CCN(Cc4ccccc4-c4ccc(Cl)cc4)CC3)cc2)cc1[N+](=O)[O-] [ABT-737]
- effect on cell viability (in words) [1]: not active
- effect on cell viability (in words) [2]: clear dose-dependent reduction in cell viability

Compound: CC[C@H](C)[C@H](NC(=O)[C@H](CCCNC(=N)N)NC(=O)[C@H](CCCNC(=N)N)NC(=O)[C@H](CC(C)C)NC(=O)CNC(=O)[C@H](CCC(N)=O)NC(=O)[C@@H](NC(=O)[C@@H](NC(=O)[C@H](Cc1c[nH]c2ccccc12)NC(=O)[C@@H](NC(=O)[C@H](CCC(=O)O)NC(=O)[C@@H]1CCCN1C(=O)[C@@H](N)CCCNC(=N)N)[C@@H](C)CC)[C@@H](C)CC)[C@@H](C)O)C(=O)NCC(=O)N[C@@H](CC(=O)O)C(=O)N[C@@H](CCC(=O)O)C(=O)N[C@@H](Cc1ccccc1)C(=O)N[C@@H](CC(N)=O)C(=O)N[C@@H](C)C(=O)N[C@@H](Cc1ccc(O)cc1)C(=O)N[C@@H](Cc1ccc(O)cc1)C(=O)N[C@@H](C)C(=O)N[C@@H](CCCNC(=N)N)C(N)=O [Bim_A2eT_E2gG]
- Kd [3]: 1.6 ± 0.57 nM
- Kd [4]: 250 ± 63 nM
- Kd [5]: 94 ± 36 nM
- Kd [6]: 37 ± 7 nM
- Kd [7]: 150 ± 27 nM

Compound: CC[C@H](C)[C@H](NC(=O)[C@H](CCC(=O)O)NC(=O)[C@H](CC(=O)O)NC(=O)CNC(=O)[C@H](CC(C)C)NC(=O)[C@H](CCCNC(=N)N)NC(=O)[C@H](CCC(N)=O)NC(=O)[C@H](CC(C)C)NC(=O)[C@H](CO)NC(=O)[C@H](CCC(N)=O)NC(=O)[C@@H](NC(=O)[C@H](CC(C)C)NC(=O)[C@H](Cc1c[nH]c2ccccc12)NC(=O)[C@@H](NC(=O)[C@H](CCC(=O)O)NC(=O)[C@@H]1CCCN1C(=O)[C@H](CCCNC(=N)N)NC(C)=O)[C@@H](C)CC)[C@@H](C)O)C(=O)N[C@@H](CC(N)=O)C(=O)N[C@@H](C)C(=O)N[C@@H](Cc1ccc(O)cc1)C(=O)N[C@@H](Cc1ccc(O)cc1)C(=O)N[C@@H](C)C(=O)N[C@@H](CCCNC(=N)N)C(N)=O [MS2]
- binding affinity to Bcl-xL (in words) [8]: micromolar affinity
- reduction in Bcl-xL binding relative to the peptide without the mutation [8, 25]: ~100 fold
- binding affinity to Bcl-2 (in words) [9]: micromolar affinity
- reduction in Bcl-2 binding relative to the peptide without the mutation [9, 25]: ~100 fold
- binding affinity to Bcl-w (in words) [10]: hundred-nanomolar range
- reduction in Bcl-w binding relative to the peptide without the mutation [10, 25]: ~10 fold
- binding affinity to Bfl-1 (in words) [11]: micromolar affinity
- reduction in Bfl-1 binding relative to the peptide without the mutation [11, 25]: ~100 fold
- EC50 [12]: > 100000 nM
- EC50 [13]: > 100000 nM
- EC50 [14]: 700 nM
- EC50 [15]: > 100000 nM

Compound: CC[C@H](C)[C@H](NC(=O)[C@H](CCCCN)NC(=O)[C@H](CCCNC(=N)N)NC(=O)[C@H](CC(C)C)NC(=O)[C@H](CCC(N)=O)NC(=O)[C@H](C)NC(=O)[C@H](C)NC(=O)[C@H](Cc1ccccc1)NC(=O)[C@H](CCC(=O)O)NC(=O)[C@@H]1CCCN1C(=O)[C@@H]1CCCN1C(=O)[C@H](CC(C)C)NC(=O)[C@H](CCC(=O)O)NC(=O)[C@H](C)NC(C)=O)C(=O)NCC(=O)N[C@@H](CC(=O)O)C(=O)N[C@@H](CCCCN)C(=O)N[C@H](C(=O)N[C@@H](Cc1ccc(O)cc1)C(=O)N[C@@H](CS)C(N)=O)C(C)C [NoxaA]
- EC50 [12]: > 100000 nM
- EC50 [16]: > 100000 nM
- EC50 [13]: > 100000 nM
- EC50 [14]: 20000 nM
- no binding up to (Bcl-xL) [17]: > 2500 nM
- no binding up to (Bcl-2) [18]: > 2500 nM
- no binding up to (Bcl-w) [19]: > 2500 nM
- no binding up to (Bfl-1) [20]: > 2500 nM
- binding to Mcl-1 in competition assay (in words) [21]: very weak

Compound: CCCC[C@H](NC(=O)[C@H](Cc1c[nH]c2ccccc12)NC(=O)[C@@H](NC(C)=O)[C@@H](C)CC)C(=O)N[C@H](C(=O)N[C@@H](CCC(N)=O)C(=O)NCC(=O)N[C@@H](CC(C)C)C(=O)N[C@@H](CCCNC(=N)N)C(=O)N[C@@]1(C)CCCC=CCCC[C@@](C)(C(=O)N[C@H](C(=O)N[C@@H](CC(N)=O)C(=O)N[C@@H](C)C(=O)N[C@@H](Cc2ccc(O)cc2)C(=O)N[C@@H](Cc2ccc(O)cc2)C(=O)N[C@@H](C)C(=O)N[C@@H](CCCNC(=N)N)C(=O)N[C@@H](CCCNC(=N)N)C(N)=O)[C@@H](C)CC)NC(=O)[C@H](CC(=O)O)NC(=O)CNC(=O)[C@H](CC(C)C)NC1=O)[C@@H](C)O [peptide 7, IWNleTQGLRXLGDXINAYYARR] (Ac-IW[Nle]TQGLR[S5]LGD[S5]INAYYARR-NH2; staple 9-13; N-terminus assumed)
- LDH release, membrane disruption (in words) [22]: membrane-disruptive

Compound: IWFAQEIDRIGDEVNAYYARR (See specification as filed for detailed description of substitutions and preferred embodiments) [B1, native, non-stapled B1 peptide]
- IC50 [23]: 90 nM

Compound: RPEIWLGQSLQRLGDEINAYYAR [B3, Bim-BH3 variant clone from yeast surface display library]
- binding preference among KSBcl-2 and five human Bcl-2 family proteins [24]: bound to KSBci-2 and Mcl-1 in preference to Bcl-2, Bfl-1, Bcl-w, and to a lesser extent Bcl-xL

Compound: RPEIWMGQGLRRLGDEINAYYAR [A12, Bim-BH3 variant clone from yeast surface display library]
- binding preference among KSBcl-2 and five human Bcl-2 family proteins [24]: bound to KSBci-2 and Mcl-1 in preference to Bcl-2, Bfl-1, Bcl-w, and to a lesser extent Bcl-xL
